Test results as given in US20210115071A1, “NANOSCALE METAL-ORGANIC FRAMEWORKS FOR ENHANCED TUMOR CHEMORADIATION” (Oregon State University, priority 2019, published 2021).

Legend:
[1] = Drug loading / encapsulation efficiency in Hf-BDC-PEG by HPLC; type: physicochemical; conditions: loaded into Hf-BDC-PEG
Description: (§1) Talazoparib and buparlisib were loaded into the Hf-BDC-PEG nMOFs by directly adding aliquots of the dissolved drugs (10 mg/mL in DMSO) at the desired concentrations into distilled water (2 mL) with the Hf-BDC-PEG nMOFs (approximately 5.0 mg) and stirred overnight. Unloaded drug(s) were removed by centrifugation and the supernatant was collected and quantified on HPLC to determine the concentration of unloaded talazoparib and buparlisib. A calibration curve for talazoparib and buparlisib was obtained using standard solutions at different concentrations and the curve was fitted with linear regression. Encapsulation efficiency was determined based on the ratio of the amount of drug loaded in Hf-BDC-PEG to the total amount added. The resulting nMOFs were dried under vacuum and stored until use. The influence of pH on drug release of talazoparib and buparlisib from the Hf-BDC-PEG nMOF was investigated using dialysis. TB@Hf-MOF (1.6 mg, 500 μL) was loaded into Slide-A-Lyzer MINI dialysis microtubes with a molecular weight cutoff of 2,000. The loaded samples were dialyzed against 12 mL of buffer (pH 5.5 or 7.4 PBS) with gentle stirring under ambient conditions. At designated time points of 0, 1, 2, 4, 24, 48, 72, 168, and 336 hours, sink samples (6 mL) were collected and replaced with fresh solution. Talazoparib and buparlisib concentrations were determined via HPLC, and drug release profiles were plotted as cumulative % of total drug release vs. time. All drug release measurements were performed in triplicate.

CT26.wt cells = test: Free drug cytotoxicity and combination index; type: cell-based, Murine; conditions: for IC50 decrease in combination vs individual drug: 30:1 TMZ:Tal; for IC50: Mus musculus, CT26.WT, 72 hrs, combination as overall concentration
Description: Free drug cytotoxicity was investigated with Tal and TMZ as individual and combination agents. To determine the optimal TMZ:Tal ratio, CT26.wt cells were plated at 4×10^3 cells per well in a 96-well plate and allowed to settle overnight. Cells were then treated with TMZ (0, 10, 30, 150, 300, 600 or 1000 μM), Tal (0, 1, 5, 10, or 100 μM), or TMZ:Tal at each of the concentrations combined (ratios ranging from 1000:1 to 1:10) and incubated for 72 hrs. Combination indexes (CIs) were determined for all combinations (including only those points on the curve with Fa values between 0.1 and 0.9) using CompuSyn (ComboSyn Inc., Paramus, N.J., USA).

[2] = Drug release from TB@Hf-BDC-PEG by dialysis; type: physicochemical; conditions: 25° C.
Description: as §1, with “Unloaded” for “Talazoparib and buparlisib were loaded into the Hf-BDC-PEG nMOFs by directly adding aliquots of the dissolved drugs (10 mg/mL in DMSO) at the desired concentrations into distilled water (2 mL) with the Hf-BDC-PEG nMOFs (approximately 5.0 mg) and stirred overnight. Unloaded”

[3] = cited from earlier work
4T1 cells = conditions: free drug, previously reported by the inventors; read-out: individual agent IC50; cited from earlier work
[4] = Drug loading of Hf-BDC nMOF (encapsulation efficiency); type: physicochemical; conditions: loaded in Hf-BDC nMOF
Description: nMOFs were suspended in either 18 MΩ water (generation 1) or methanol (generation 2) at 5 mg/mL depending on colloidal stability. nMOF redispersed in water at 5 mg/mL was combined with fucoidan or dextran (both at 1 mg/mL in 18 MΩ water) at a 1:1 v/v ratio, sonicated for 1 hour, and filtered. nMOF redispersed in methanol at 5 mg/mL was combined with fucoidan or dextran (both at 1 mg/mL in 18 MΩ water) at a 1:1 v/v ratio, sonicated for 15 mins and stirred open overnight. After evaporation nMOFs were redispersed to 2.5 mg/mL nMOF in water and subsequently filtered. For drug loading, all steps remained the same except that drug dissolved in DMSO (Tal and/or TMZ or Cyanine 7.5) was added to the nMOF in water or methanol, sonicated for one hour, and washed by centrifuge twice (collecting the supernatant for quantification) before continuing with either surface coating procedure.

Structure (SMILES): C[N+]1=C(C=CC2=CC(=CC=C3N(CCCCCC(=O)O)c4ccc5ccccc5c4C3(C)C)CCC2)C(C)(C)c2c1ccc1ccccc21.[Cl-] [Cy 7.5, cyanine 7.5 carboxylic acid]
- Encapsulation efficiency (EE %) [1]: approximately 98%

Structure (SMILES): Cn1nnc2c(C(N)=O)ncn2c1=O [TMZ, temozolomide]
- IC50 decrease in combination vs individual drug (CT26.wt cells): 3.3 fold
- IC50 (CT26.wt cells): 34 µM

Structure (SMILES): Nc1cc(C(F)(F)F)c(-c2cc(N3CCOCC3)nc(N3CCOCC3)n2)cn1 [buparlisib]
- Encapsulation efficiency (EE %) [1]: 14%
- drug released within the first 24 hours ([2]; pH 5.5, PBS): ~37%
- drug release after two weeks incubation ([2]; pH 7.5, PBS): ~100%
- drug released within the first 24 hours ([2]; pH 7.5, PBS): 24%
- log P [3]: 2.13
- IC50 (4T1 cells): 4.7 µM

Structure (SMILES): Cn1ncnc1[C@H]1c2n[nH]c(=O)c3cc(F)cc(c23)N[C@@H]1c1ccc(F)cc1 [talazoparib]
- Encapsulation efficiency (EE %) [1]: 77%
- drug released within the first 24 hours ([2]; pH 5.5, PBS): approximately 21%
- drug release after two weeks incubation ([2]; pH 7.5, PBS): approximately 85%
- drug released within the first 24 hours ([2]; pH 7.5, PBS): 11%
- IC50 decrease in combination vs individual drug (CT26.wt cells): 14.6 fold
- IC50 (CT26.wt cells): 5.1 µM
- average encapsulation efficiencies (EE) [4]: 54%
- log P [3]: 2.93
- IC50 (4T1 cells): 1.4 µM
